These results are taken from ChEMBL document CHEMBL4020702, “Development of α1,6-fucosyltransferase inhibitors through the diversity-oriented syntheses of GDP-fucose mimics using the coupling between alkyne and sulfonyl azide” (Bioorg Med Chem, 2017).

For the assay, the target named is T1, Alpha-(1,6)-fucosyltransferase (Homo sapiens) (UniProt Q9BYC5).
T1 sequence (whole entry): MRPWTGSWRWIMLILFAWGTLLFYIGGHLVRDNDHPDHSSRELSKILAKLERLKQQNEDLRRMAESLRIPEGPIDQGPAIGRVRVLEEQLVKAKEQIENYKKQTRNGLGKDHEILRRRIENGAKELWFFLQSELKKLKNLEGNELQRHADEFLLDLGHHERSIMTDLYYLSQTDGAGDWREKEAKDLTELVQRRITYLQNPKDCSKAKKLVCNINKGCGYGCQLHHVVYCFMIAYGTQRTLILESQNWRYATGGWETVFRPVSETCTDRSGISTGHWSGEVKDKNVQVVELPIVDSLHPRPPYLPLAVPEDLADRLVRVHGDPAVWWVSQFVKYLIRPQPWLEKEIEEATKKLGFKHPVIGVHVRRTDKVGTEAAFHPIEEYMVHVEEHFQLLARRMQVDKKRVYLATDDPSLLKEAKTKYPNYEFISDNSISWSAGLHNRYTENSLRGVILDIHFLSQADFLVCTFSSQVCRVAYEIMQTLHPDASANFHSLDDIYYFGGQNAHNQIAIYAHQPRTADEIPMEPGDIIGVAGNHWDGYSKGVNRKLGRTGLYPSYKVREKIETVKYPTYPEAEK
The assay can be described thus: Inhibition of FUT8 in human […] cells at 100 uM using (S)-2-(((9H-fluoren-9-yl)methoxy)carbonylamino)-4-((2R,3R,4R,5S,6R)-3-acetamido-5-((2S,3R,4R,5S,6R)-3-acetamido-5-((2S,3S,4S,5R,6R)-4-((2R,3S,4S,5S,6R)-3-((2S,3R,4R,5S,6R)-3-acetamido-4,5-dihydroxy-6-(hydroxymethyl)tetrahydro-2H-pyran-2-yloxy)-4,5-dihydroxy-6-(hydroxymethyl)tetrahydro-2H-pyran-2-yloxy)-6-(((2S,3S,4S,5S,6R)-3-((2S,3R,4R,5S,6R)-3-acetamido-4,5-dihydroxy-6-(hydroxymethyl)tetrahydro-2H-pyran-2-yloxy)-4,5-dihydroxy-6-(hydroxymethyl)tetrahydro-2H-pyran-2-yloxy)methyl)-3,5-dihydroxytetrahydro-2H-pyran-2-yloxy)-4-hydroxy-6-(hydroxymethyl)tetrahydro-2H-pyran-2-yloxy)-4-hydroxy-6-(hydroxymethyl)tetrahydro-2H-pyran-2-ylamino)-4-oxobutanoic acid as substrate after 24 hrs in presence of GDP-fucose by HPLC method relative to control. In kind it is cell-based.

Usually inhibition stands for the share of the control response that was lost under treatment.

Structures are written as SMILES.

Regarding `CCN(CC)/C(CCO[C@H]1O[C@@H](C)[C@@H](O)[C@@H](O)[C@@H]1O)=N\S(=O)(=O)CCCCCn1cnc2c(=O)[nH]c(N)nc21`, the inhibition turned out to be 39%.
Consider `CCCS/C(CCO[C@H]1O[C@@H](C)[C@@H](O)[C@@H](O)[C@@H]1O)=N\S(=O)(=O)CCCCCn1cnc2c(=O)[nH]c(N)nc21`, for which the inhibition amounted to 14%.
The value for `C[C@@H]1O[C@H](OCCC(=O)NS(=O)(=O)CCCCCn2cnc3c(=O)[nH]c(N)nc32)[C@@H](O)[C@H](O)[C@@H]1O` was 31%; that for `CCCN/C(CCO[C@H]1O[C@@H](C)[C@@H](O)[C@@H](O)[C@@H]1O)=N\S(=O)(=O)CCCCCn1cnc2c(=O)[nH]c(N)nc21` was 41%.
On to `CO/C(CCO[C@H]1O[C@@H](C)[C@@H](O)[C@@H](O)[C@@H]1O)=N\S(=O)(=O)CCCCCn1cnc2c(=O)[nH]c(N)nc21`, for which the inhibition was found to be 57%.
The value for `C[C@@H]1O[C@H](OCc2cn(S(=O)(=O)CCCCCn3cnc4c(=O)[nH]c(N)nc43)nn2)[C@@H](O)[C@H](O)[C@@H]1O` was 45%.
